Source: patent US12528792B2, “Sulfonamide compounds and the use thereof in the treatment of cancer” (TROBIO THERAPEUTICS PTY LTD, priority 2019, dated 2026)

What was measured:
[1] = system: A2780 ovarian cancer cells; experiment: In vitro growth inhibition assay, Alamar Blue, single agent IC50; assay type: cell-based; conditions: Homo sapiens, 72 h drug exposure, Alamar Blue, 384-well (26*: 96-well plate format), read-out: Single-agent IC50
Protocol: In vitro growth inhibition assays were performed as technical triplicate in two independent experiments and cell viability was assessed by Alamar Blue assay readout. Briefly, cells in logarithmic phase growth were seeded in 384-well plates in a 50 μL/well assay volume. Cells were seeded at 1,200 cells/well using a Multidrop 384 (Thermo Scientific) and allowed to adhere at 37° C. with 5% CO2, in a humidified atmosphere (LiCONIC incubator). After 24 hours incubation, test compounds, positive control (20 μM Thonzonium bromide, 100% kill) and vehicle only (0.4% DMSO) were added into wells of each assay plate using a Tecan HP D300 Digital Dispenser in technical triplicate under minimum light. Following 72 hours drug exposure, metabolic activity was detected by addition of 10% (v/v) Alamar Blue reagent to each assay well using a Multidrop Cambi (Thermo Scientific) and determined by measurement of fluorescence intensity (excitation 555 nm, emission 585 nm) using an EnSpire (Perkin Elmer) plate reader. Readings were performed at 0 hour (background) and after 6 hours alamar blue incubation at 37° C.
Each drug was tested as a 10-point concentration series with two-fold serial dilutions of each drug. The concentration series for compounds 6 and 8 was 100, 50, 25, 12.5, 6.25, 3.125, 1.563, 0.781, 0.391 and 0.195 μM and for compounds 24, 43 and 48 was 50, 25, 12.5, 6.25, 3.125, 1.563, 0.781, 0.391, 0.195 and 0.098 μM for the two independent experiments. The concentration series for vinorelbine and paclitaxel was 100, 50, 25, 12.5, 6.25, 3.125, 1.5625, 0.781, 0.391 and 0.195 nM. Thonzonium bromide (20 μM) and 0.4% DMSO were used as positive and vehicle controls, respectively. The IC50 value was calculated by derivation of the best-fit line using a sigmoidal dose response model (Activity Base Software Suite, IDES).
Activity Base software suite (IDES, version 8.3.0.175) was used for data analysis. Cell survival is expressed as a percentage of viable cells. IC50 concentrations were calculated by derivation of the best-fit line using a sigmoidal dose response model with technical triplicate data points.

[2] = system: SK-N-SH neuroblastoma cells; experiment: Cytotoxicity assay, MTS viability; assay type: cell-based; conditions: Homo sapiens, 72 hours
Procedure, shortened: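 SK-N-SH cells, 2×10^3/well in DMEM with 10% FBS at 37 °C, treated with 1:2 compound series from 100 μM; MTS viability read after 72 hours. Viability normalised to vehicle control; EC50 taken from dose-response curves.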

A2780 (ovarian) cells = experiment: Anti-proliferative activity, Cell-Titre luminescent viability assay; assay type: cell-based; conditions: Homo sapiens, 72 h exposure, Cell-Titre luminescent reagent
Procedure, shortened: (§1)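 Cells attached 24 h at 37° C., 5% CO2, then treated 72 h with compound at 0.3–100 μM or 0.1–30 μM. Viability read by Cell-Titre luminescence after 30 min reagent exposure, normalized to vehicle; EC50 from variable-slope sigmoidal nonlinear regression.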

A549 (NSCLC) cells = experiment: as above; assay type: cell-based; conditions: Homo sapiens, 72 h exposure, Cell-Titre luminescent reagent
Procedure, shortened: as §1

[3] = system: MIA PaCa-2 (pancreatic) cells; experiment: as above; assay type: cell-based; conditions: Homo sapiens, 72 h exposure, Cell-Titre luminescent reagent
Procedure, shortened: as §1

PC3 (prostate) cells = experiment: as above; assay type: cell-based; conditions: 72 h exposure, Cell-Titre luminescent reagent
Procedure, shortened: as §1

[4] = system: Caco-2 (colorectal) cells; experiment: as above; assay type: cell-based; conditions: Homo sapiens, 72 h exposure, Cell-Titre luminescent reagent
Procedure, shortened: as §1

F-actin/Tpm3.1 = F-actin/Tpm3.1 (Homo sapiens, UniProt P06753); experiment: Actin depolymerisation assay; assay type: biochemical; conditions: 50 μmol/L test compound, FIG. 1
Protocol: A 12 μmol/L solution of labelled F-actin was prepared by polymerising the monomeric actin (35% pyrene labelled Rabbit Muscle (Cytoskeleton Inc)) into filaments in the presence of buffer T (100 mmol/L NaCl; 10 mmol/L Tris HCl PH 7.5; 2 mmol/L MgCl2; 1 mmol/L EGTA; 0.5 mmol/L DTT) with added ATP (0.2 mmol/L), for 1 hour in the dark at room temperature. Tpm3.1 (10 μmol/L) was reduced in buffer T containing 1 mmol/L DTT at 70° C. for 6 minutes and centrifuged at 60,000 rpm for 30 minutes to remove nonreduced dimers. […] Duplicate samples were diluted 12-fold using an F-actin polymerisation buffer (100 mmol/L NaCl; 10 mmol/L Tris HCl PH 7; 2 mmol/L MgCl2; 1 mmol/L EGTA; 0.2 mmol/L ATP; 1 mmol/L DTT) and the depolymerisation rates of F-actin alone, F-actin/Tpm3.1, and the F-actin/Tpm3.1/test compound filament complex were measured using a Costar 3915 fluorescence plate reader (407 nm) at 36-second intervals for 160 minutes at room temperature. Data were normalized to the initial fluorescence value and polymerisation curves of duplicate samples were fitted to a two-phase exponential decay model using OriginPro 9.1 (OriginLab) (FIG. 1A). Percent polymerisation was determined at t160 as a function of to (100%) (FIG. 1B, p<0.0001).

`O=C(Nc1ccc(C(F)(F)F)cc1)c1ccn(S(=O)(=O)c2ccc3[nH]ccc3c2)c1` [Compound 26, 1-((1H-indol-5-yl)sulfonyl)-N-(4-(trifluoromethyl)phenyl)-1H-pyrrole-3-carboxamide] showed an IC50 [1] of 12.5 µM, an IC50 [2] of 7.87 µM and an IC50 (A2780 (ovarian) cells) of 4.9 µM. It also gave an IC50 (A549 (NSCLC) cells) of 6.8 µM, an IC50 [3] of 10.1 µM and an IC50 (PC3 (prostate) cells) of 7.7 µM. The IC50 [4] was 6.1 µM and the “Inhibition of Tpm3.1 protection of actin filaments from depolymerisation” value (F-actin/Tpm3.1) was “inhibit the ability of Tpm3.1 to protect actin filaments from depolymerisation”.
